How the values were obtained:
TRPV3 channels = target: T1, TRPV3 channels (Homo sapiens, UniProt Q8NET8); assay: TRP Family FLIPR Assay, TRPV3; assay type: cell-based; details: HEK293 cells (transient)
T1 construct: expressed in transfected cells; host or cells: HEK293 (transient)
T1 sequence (Q8NET8 1-790): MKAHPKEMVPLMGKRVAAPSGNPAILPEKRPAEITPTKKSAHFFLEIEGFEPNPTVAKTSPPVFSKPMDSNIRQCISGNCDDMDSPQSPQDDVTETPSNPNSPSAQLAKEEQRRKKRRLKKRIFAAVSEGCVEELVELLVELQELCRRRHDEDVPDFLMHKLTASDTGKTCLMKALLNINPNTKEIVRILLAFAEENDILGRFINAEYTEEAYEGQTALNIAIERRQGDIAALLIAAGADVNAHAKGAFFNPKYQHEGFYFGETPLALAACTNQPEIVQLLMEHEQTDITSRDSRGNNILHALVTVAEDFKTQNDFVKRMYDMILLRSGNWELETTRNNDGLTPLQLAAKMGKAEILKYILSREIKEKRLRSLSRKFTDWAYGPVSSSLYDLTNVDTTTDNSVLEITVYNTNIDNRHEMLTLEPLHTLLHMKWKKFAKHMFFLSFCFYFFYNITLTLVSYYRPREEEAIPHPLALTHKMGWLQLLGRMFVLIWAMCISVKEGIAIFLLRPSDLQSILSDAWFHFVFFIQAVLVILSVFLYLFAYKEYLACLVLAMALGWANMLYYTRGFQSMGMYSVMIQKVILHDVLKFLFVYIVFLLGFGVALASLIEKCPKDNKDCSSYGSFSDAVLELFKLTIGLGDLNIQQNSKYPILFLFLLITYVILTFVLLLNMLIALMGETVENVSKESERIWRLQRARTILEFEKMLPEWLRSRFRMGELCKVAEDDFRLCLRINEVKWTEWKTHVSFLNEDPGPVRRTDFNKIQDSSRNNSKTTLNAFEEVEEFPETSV
Protocol: (§1) The compound of Example 5 was tested for selectivity against a panel of Human TRP family ion channels in a TRP Family FLIPR Assay as described below. • 1. TRPC3 channels (human TRPC3 variant 1 gene, expressed in HEK293 cells). • 2. TRPC4 channels (human TRPC4 gene, expressed in HEK293 cells). • 3. TRPC5 channels (human TRPC5 gene, expressed in HEK293 cells). • 4. TRPC6 channels (human TRPC6 gene, expressed in HEK293 cells). • 5. TRPM2 channels (human TRPM2 gene, transiently expressed in HEK293 cells). • 6. TRPM3 channels (human TRPM3 gene, transiently expressed in HEK293 cells). • 7. TRPM4 channels (human TRPM4 gene, expressed in CHO cells). • 8. […]
(§2) Data acquisition was performed via the FLIPR Control software supplied with the FLIPR System (MDS-AT) and data was analyzed using Microsoft Excel (Microsoft Corp., Redmond, WA) or GraphPad Prism. […]
(§3) [formula] where Base is the response at low concentrations of test article, Max is the maximum response at high concentrations, xhalf the EC50, or IC50, the concentration of test article producing either half-maximal activation or inhibition, and rate is the Hill coefficient. […] No assumptions about the fit parameters was made; the fit parameters were determined by the algorithm.
(§4) The effect of each test article was evaluated at eight (8) concentrations: 0.003, 0.01, 0.03, 0.1, 0.3, 1, 3 and 10 μM, n≤4 wells/concentration). […]

TRPM4 channels = target: T2, TRPM4 channels (Homo sapiens, UniProt Q8TD43); assay: TRP Family FLIPR Assay, TRPM4; assay type: cell-based; details: CHO cells
T2 construct: expressed in transfected cells; host or cells: CHO
Protocol: as §1, §2, §3, §4

T2 sequence (Q8TD43 whole entry): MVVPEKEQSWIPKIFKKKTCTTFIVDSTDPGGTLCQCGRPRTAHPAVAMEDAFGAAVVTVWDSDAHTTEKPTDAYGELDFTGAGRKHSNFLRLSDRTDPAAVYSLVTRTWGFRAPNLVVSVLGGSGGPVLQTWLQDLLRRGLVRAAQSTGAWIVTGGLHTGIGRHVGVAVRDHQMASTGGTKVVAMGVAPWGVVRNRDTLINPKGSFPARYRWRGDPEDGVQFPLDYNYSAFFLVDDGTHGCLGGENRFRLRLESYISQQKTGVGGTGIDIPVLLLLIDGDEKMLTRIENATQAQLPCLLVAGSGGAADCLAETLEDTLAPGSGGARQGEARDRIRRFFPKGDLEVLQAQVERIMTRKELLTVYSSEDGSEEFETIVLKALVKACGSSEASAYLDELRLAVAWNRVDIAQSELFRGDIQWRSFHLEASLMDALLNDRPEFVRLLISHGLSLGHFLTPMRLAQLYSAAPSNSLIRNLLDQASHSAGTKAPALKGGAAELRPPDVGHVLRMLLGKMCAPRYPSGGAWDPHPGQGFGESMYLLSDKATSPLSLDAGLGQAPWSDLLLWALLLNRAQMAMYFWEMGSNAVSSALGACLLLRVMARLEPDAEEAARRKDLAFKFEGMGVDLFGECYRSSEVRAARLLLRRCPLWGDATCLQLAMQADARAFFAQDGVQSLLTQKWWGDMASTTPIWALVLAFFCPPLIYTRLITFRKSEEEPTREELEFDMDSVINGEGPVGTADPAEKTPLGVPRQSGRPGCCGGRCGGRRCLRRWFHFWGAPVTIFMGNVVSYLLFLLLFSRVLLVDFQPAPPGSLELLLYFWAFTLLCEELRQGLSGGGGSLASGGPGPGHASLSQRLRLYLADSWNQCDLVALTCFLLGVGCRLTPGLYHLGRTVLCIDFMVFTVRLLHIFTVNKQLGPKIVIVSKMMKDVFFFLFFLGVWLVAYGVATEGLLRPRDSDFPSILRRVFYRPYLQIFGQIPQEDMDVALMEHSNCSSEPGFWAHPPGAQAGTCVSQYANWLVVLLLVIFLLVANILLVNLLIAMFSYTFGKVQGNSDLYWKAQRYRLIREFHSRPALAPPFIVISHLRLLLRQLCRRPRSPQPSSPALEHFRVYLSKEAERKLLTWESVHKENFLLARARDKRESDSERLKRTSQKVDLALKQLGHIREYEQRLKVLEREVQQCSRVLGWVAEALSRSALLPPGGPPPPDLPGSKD

CC(C)(O)c1cnc(N2C[C@@]3(CC[C@@H](F)[C@](C)(Cn4cnc5ccc(C#N)cc54)C3)OC2=O)cn1 (single isomer, unassigned) [Example 5]
> 10 µM: EC50 (TRPV3 channels; agonist mode, vs EMAX of cannabidiol 300 μM, read-out: EC50 hTRPV3) | IC50 (TRPV3 channels; antagonist mode, activated with 2-APB 50 μM, 0.003-10 μM, read-out: IC50 hTRPV3) | EC50 (TRPM4 channels; agonist mode, vs EMAX of A23187 3.3 μM, read-out: EC50 hTRMP4) | IC50 (TRPM4 channels; antagonist mode, activated with A23187 10 μM, 0.003-10 μM, read-out: IC50 hTRMP4)
